The subject of data set [1] is HIV-1 Env-mediated cell–cell fusion (H9/HIV-1 IIIB cells and MT-2 cells). Type of data set: cell-based. The following applies: for IC50: Calcein AM-labelled H9/HIV-1 IIIB cells, peptide 30 min at 37 °C, then MT-2 cells 2 h, fused cells counted by fluorescence microscopy, triplicate, mean ± SD, read-out: IC50, inhibitory activity on HIV-1 Env-mediated cell–cell fusion. As to the method:
4.2. HIV-1 Env-Mediated Cell–Cell Fusion Assay
Briefly, the fluorescent reagent Calcein AM (abcam, Shanghai, China) was used to label H9/HIV-1 IIIB cells (obtained from the Inner Mongolia Autonomous Region New Drug Screening Engineering Research Center in Inner Mongolia Medical University, Hohhot, China). First, 2.5 μL of Calcein AM was used to stain 2 × 10^5 H9/HIV-1 IIIB cells. After labeling at 37 °C for 30 min, the cells were washed twice with PBS (Thermo Fisher Scientific, Waltham, MA, USA) and resuspended in fresh RPMI 1640 (Sigma-Aldrich, St. Louis, MO, USA) medium supplemented with 10% FBS. Next, 50 μL of diluted peptides and 50 μL of a mixture containing 2 × 10^5 H9/HIV-1 IIIB cells/mL were added to a 96-well cell culture plate and incubated at 37 °C for 30 min. Subsequently, 1 × 10^5 MT-2 cells were added to the mixture and cultured at 37 °C for 2 h. The fused cells were quantified using an inverted fluorescence microscope. The IC50 values were calculated using CalcuSyn software (Version 2.0).

Data set [2] concerns HIV-1 pseudovirus derived from the JFRL macrophagic strain (subtype B) on U87 CD4+ CCR5+ cells. Type of data set: cell-based. The following applies: luciferase read-out 48 h post-infection. On the procedure: 4.3. Neutralization Assay of HIV-1 Pseudovirus
Briefly, U87 CD4^+ CCR5^+ cells (obtained from the Inner Mongolia Autonomous Region New Drug Screening Engineering Research Center in Inner Mongolia Medical University, Hohhot, China) (1 × 10^4 cells/well) were plated in 96-well tissue culture plates and incubated at 37 °C in a humidified 5% CO2 atmosphere for 12 h to allow cell adherence. Serial dilutions of the test peptides were prepared, and each dilution was mixed with the HIV-1 pseudovirus derived from the JFRL macrophagic strain (subtype B). After incubating the virus-peptide mixtures at 37 °C for 30 min to allow interaction, the mixtures were transferred to the pre-seeded U87 CD4^+ CCR5^+ cells. At 12 h post-infection, the culture medium was refreshed to remove unbound viruses and excess peptides. Forty-eight hours post-infection, the cells were lysed using Cell Culture Lysis Reagent (Promega, Madison, WI, USA), and the luminescence intensity (reflecting luciferase activity) was quantified using the Luciferase Assay System (Promega, E4030) according to the manufacturer’s instructions.

Data set [3] is described as follows: in vitro. The following applies: liver microsomes.
Procedure: Phase I Metabolic Stability Assay
(§1) Experiments were carried out using the Phase I Metabolic Stability Research Kit (IPHASE, Suzhou, China). Solution A in the kit was pre-incubated at 37 °C for 5 min, and solution B was prepared from PBS (100 mM), the subject (or positive substrate), and liver microsomes. The above two were mixed and immediately placed in a 37 °C water bath for incubation. The incubation solution is quantitatively removed from the incubation system at preset time points (0, 5, 10, 15, 30, 60 min), and an equal volume of termination solution is added. Each sample was run in parallel three times. The substrate remaining amount at each time point was determined by RP-HPLC (Shimadzu preparative HPLC system, Shimadzu Corporation, Kyoto, Japan), the substrate remaining percentage was calculated, and the slope k was determined by linear regression analysis to calculate the Elimination half-life and Hepatic microsomal intrinsic clearance.
Data set [4] addresses T1, N36/C34 six-helix bundle (6-HB) (Human immunodeficiency virus type 1 group M subtype B, UniProt P04578).
T1 construct: corresponding to the NHR region of gp41 (residues 546–581); made in house; host or cells: chemical synthesis (Fmoc solid-phase)
As to the kind of experiment: N-PAGE detection of blocking of 6-HB formation between C34 and N36. The following applies: N36 (20 μM) with rising peptide concentration, 37 °C 30 min, then C34 (20 μM) 30 min. It is filed as biochemical, HIV-1. On the procedure:
Figure 5 (A) N-PAGE to detect the blocking of 6-HB formation between C34 and N36 by EK35S peptide. N36 (20 μM) with or without EK35S was incubated at 37 °C for 30 min, followed by the addition of C34 (20 μM). The mixture was incubated at 37 °C for another 30 min before loading into the gel; (B) N-PAGE to detect the blocking of 6-HB formation between C34 and N36 by EK35S-Plam peptide. N36 (20 μM) with or without EK35S-Plam was incubated at 37 °C for 30 min, followed by the addition of C34 (20 μM). The mixture was incubated at 37 °C for another 30 min before loading into the gel.
4.6. Methods for Native Polyacrylamide Gel Electrophoresis (N-PAGE)
Peptides, as well as their equimolar mixtures, were prepared at a final concentration of 100 μM in PBS (10 mM, pH 7.4) and incubated at 37 °C for 30 min. After incubation, the peptide solutions were mixed with methyl green loading buffer in a 1:1 ratio, and 20 μL of each sample was loaded into the wells of the gel. Gel electrophoresis was performed at room temperature, initially at a constant voltage of 90 V for 0.5 h, followed by 150 V for 2–3 h. The gels were then stained with Coomassie Brilliant Blue G250 (Bio-Rad, Shanghai, China), and images were captured using the ChampGel 6000 Imaging System (Sage Creation Ltd., Beijing, China).

The conditions of data set [5]: liver microsomes.
Procedure: Phase I Metabolic Stability Assay
as §1
The target of data set [6] is T1, N36/C34 six-helix bundle (6-HB). Put plainly: SE-HPLC analysis of 6-HB formation between N36 and C34. Type of data set: biochemical, HIV-1. The following applies: gradual addition of peptide to the C34/N36 mixture; PBS pH 7.4, BioSep-SEC-S2000, 210 nm.

Like-named read-outs stand apart in the source and are kept apart here. Square brackets hold non-standard residues; d marks the D form. Peptide text beside a SMILES is read from it. * marks the point of attachment. X1 = CC(C)CCC[C@@H](C)[C@H]1CC[C@H]2[C@@H]3CC=C4C[C@@H](OC(=O)C*)CC[C@]4(C)[C@H]3CC[C@]12C; Palmitoyl = CCCCCCCCCCCCCCCC(=O)*; βAla = NCCC(=O)O

T1 sequence (P04578 546-581): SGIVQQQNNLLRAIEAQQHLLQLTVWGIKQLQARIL

Regarding “Ac-IEELIKKIEELIKKIEELIKKIEELIKKIEELIKK-NH2 [EK35]”, the IC50 was more than 100 µM in data set [1] and 119 ± 1.39 µM in data set [2].

On to “Ac-IEELYKKIEELYKKIEELYKKIEELYKKIEELYKK-NH2 [EK35Y]”, for which the IC50 in data set [1] is 23.2 ± 6.72 µM; in data set [2], 15.2 ± 0.65 µM.

For “Ac-IEELMKKIEELMKKIEELMKKIEELMKKIEELMKK-NH2 [EK35M]”, the IC50 was 15.8 ± 8.92 µM in data set [1] and 25.3 ± 0.85 µM in data set [2].

In data set [3], enfuvirtide yielded a half-life of 2.51 h.

Regarding `CCCCCCCCCCCCCCCC(=O)NCCCC[C@H](NC(=O)CCNC(=O)[C@H](CCCCN)NC(=O)[C@H](CCCCN)NC(=O)[C@H](CO)NC(=O)[C@H](CC(C)C)NC(=O)[C@H](CCC(=O)O)NC(=O)[C@H](CCC(=O)O)NC(=O)[C@@H](NC(=O)[C@H](CCCCN)NC(=O)[C@H](CCCCN)NC(=O)[C@H](CO)NC(=O)[C@H](CC(C)C)NC(=O)[C@H](CCC(=O)O)NC(=O)[C@H](CCC(=O)O)NC(=O)[C@@H](NC(=O)[C@H](CCCCN)NC(=O)[C@H](CCCCN)NC(=O)[C@H](CO)NC(=O)[C@H](CC(C)C)NC(=O)[C@H](CCC(=O)O)NC(=O)[C@H](CCC(=O)O)NC(=O)[C@@H](NC(=O)[C@H](CCCCN)NC(=O)[C@H](CCCCN)NC(=O)[C@H](CO)NC(=O)[C@H](CC(C)C)NC(=O)[C@H](CCC(=O)O)NC(=O)[C@H](CCC(=O)O)NC(=O)[C@@H](NC(=O)[C@H](CCCCN)NC(=O)[C@H](CCCCN)NC(=O)[C@H](CO)NC(=O)[C@H](CC(C)C)NC(=O)[C@H](CCC(=O)O)NC(=O)[C@H](CCC(=O)O)NC(=O)[C@@H](NC(C)=O)[C@@H](C)CC)[C@@H](C)CC)[C@@H](C)CC)[C@@H](C)CC)[C@@H](C)CC)C(N)=O` [EK35S-Palm] (Ac-IEELSKKIEELSKKIEELSKKIEELSKKIEELSKK[βAla]K(Palmitoyl)-NH2), the “effect on the 6-HB band (N-PAGE)” value in data set [4] is “gradually became significantly lighter”. Also, in data set [5], the half-life came out at 3.61 h. The “effect on the 6-HB complex peak (SE-HPLC)” value in data set [6] is on record as “decreased significantly”. In data set [1] (cell–cell fusion and pseudovirus inhibition (Table 2 and Figure 3)), the “fold more potent than the parent EK35S” value is on record as “over 200 fold”.

For the compound “Ac-IEELSKKIEELSKKIEELSKKIEELSKKIEELSKK-NH2 [EK35S]”, the “effect on the 6-HB band (N-PAGE)” value in data set [4] is reported as “no obvious change”. This compound showed a half-life in data set [3] of 2.22 h. Further, in data set [6], the “effect on the 6-HB complex peak (SE-HPLC)” value is on record as “does not affect 6-HB peak”. Moreover, the IC50 in data set [1] was 5.98 ± 1.23 µM; in data set [2], 2.42 ± 0.18 µM.

Consider “Ac-IEELFKKIEELFKKIEELFKKIEELFKKIEELFKK-NH2 [EK35F]”, for which the IC50 was 92.4 ± 9.22 µM in data set [1] and 110 ± 2.37 µM in data set [2].

As for “IEELSKK IEELSKK IEELSKK IEELSKK IEELSKK-OApc [EK35S-OApc, EK35S conjugated with protected oleanolic acid derivative OApc via click chemistry]”, the IC50 in data set [1] is 4.82 ± 0.89 µM; in data set [2], 1.88 ± 0.14 µM.

With Enfuvirtide, the IC50 is 0.008 ± 0.002 µM in data set [1] and 0.00824 ± 0.00087 µM in data set [2].

For `CC[C@H](C)[C@H](NC(C)=O)C(=O)N[C@@H](CCC(=O)O)C(=O)N[C@@H](CCC(=O)O)C(=O)N[C@@H](CC(C)C)C(=O)N[C@@H](CO)C(=O)N[C@@H](CCCCN)C(=O)N[C@@H](CCCCN)C(=O)N[C@H](C(=O)N[C@@H](CCC(=O)O)C(=O)N[C@@H](CCC(=O)O)C(=O)N[C@@H](CC(C)C)C(=O)N[C@@H](CO)C(=O)N[C@@H](CCCCN)C(=O)N[C@@H](CCCCN)C(=O)N[C@H](C(=O)N[C@@H](CCC(=O)O)C(=O)N[C@@H](CCC(=O)O)C(=O)N[C@@H](CC(C)C)C(=O)N[C@@H](CO)C(=O)N[C@@H](CCCCN)C(=O)N[C@@H](CCCCN)C(=O)N[C@H](C(=O)N[C@@H](CCC(=O)O)C(=O)N[C@@H](CCC(=O)O)C(=O)N[C@@H](CC(C)C)C(=O)N[C@@H](CO)C(=O)N[C@@H](CCCCN)C(=O)N[C@@H](CCCCN)C(=O)N[C@H](C(=O)N[C@@H](CCC(=O)O)C(=O)N[C@@H](CCC(=O)O)C(=O)N[C@@H](CC(C)C)C(=O)N[C@@H](CO)C(=O)N[C@@H](CCCCN)C(=O)N[C@@H](CCCCN)C(=O)NCCC(=O)N[C@@H](CSCC(=O)O[C@H]1CC[C@@]2(C)C(=CC[C@H]3[C@@H]4CC[C@H]([C@H](C)CCCC(C)C)[C@@]4(C)CC[C@@H]32)C1)C(N)=O)[C@@H](C)CC)[C@@H](C)CC)[C@@H](C)CC)[C@@H](C)CC` [EK35S-Chol] (Ac-IEELSKKIEELSKKIEELSKKIEELSKKIEELSKK[βAla]C(X1)-NH2), the IC50 in data set [1] was more than 100 µM; in data set [2], 85.7 ± 2.02 µM.

Source of the values: publication PMC12736293, “Design of Artificial Peptide Against HIV-1 Based on the Heptad-Repeat Rules and Membrane-Anchor Strategies” (Pharmaceuticals, 2025).
